target: full-length human PIKFYVE (Homo sapiens (Human), UniProt Q9Y2I7, L932S/Q1183K/Q995L/S1033A/S696N/T998S); assay: PIKfyve biochemical assay (ADP-Glo Kinase assay, Carna Biosciences); details: class symbols
From the text: PIKfyve Biochemical Assay. The biochemical […] inhibition assays were run by Carna Biosciences according to proprietary methodology based on the Promega […] Kinase assay. […] NP_055855.2] was expressed as N-terminal GST-fusion protein (265 kDa) using baculovirus expression system. GST-PIKFYVE was purified by using glutathione sepharose chromatography and used in an ADP-GloTM Kinase assay (Promega). Reactions were set up by adding the test compound solution, substrate solution, ATP solution and kinase solution, each at 4× final concentrations. Reactions were prepared with assay buffer (50 mM MOPS, 1 mM DTT, pH7.2), mixed, and incubated in black 384 well polystyrene plates for 1 hour at room temperature. ADP-Glo^TM reagent was then added for 40 minutes, followed by kinase detection reagent for an additional 40 minutes. The kinase activity was evaluated by detecting relative light units on a luminescence plate reader. […] IC50 values were calculated from concentration vs % inhibition curves by fitting to a four-parameter logistic curve. […] The biochemical […] inhibition assays were run by Carna Biosciences according to proprietary methodology based on the Promega ADP-GloTM Kinase assay. […] GST-PIKFYVE was purified by using glutathione sepharose chromatography and used in an ADP-GIoTM Kinase assay (Promega). Reactions were set up by adding the test compound solution, substrate solution, ATP solution and kinase solution, each at 4× final concentrations. Reactions were prepared with assay buffer (50 mM MOPS, 1 mM DTT, pH7.2), mixed, and incubated in black 384 well polystyrene plates for 1 hour at room temperature. ADP-GIoTM reagent was then added for 40 minutes, followed by kinase detection reagent for an additional 40 minutes. The kinase activity was evaluated by detecting relative light units on a luminescence plate reader. […] IC50 values were calculated from concentration vs % inhibition curves by fitting to a four-parameter logistic curve. […] The same compounds were also tested in both FAB1 and PIKFYVE TDP-43 yeast models.

full-length human PIKFYVE, sequence (Q9Y2I7 whole entry S696N/L932S/Q995L/T998S/S1033A/Q1183K, the tested form may be a part): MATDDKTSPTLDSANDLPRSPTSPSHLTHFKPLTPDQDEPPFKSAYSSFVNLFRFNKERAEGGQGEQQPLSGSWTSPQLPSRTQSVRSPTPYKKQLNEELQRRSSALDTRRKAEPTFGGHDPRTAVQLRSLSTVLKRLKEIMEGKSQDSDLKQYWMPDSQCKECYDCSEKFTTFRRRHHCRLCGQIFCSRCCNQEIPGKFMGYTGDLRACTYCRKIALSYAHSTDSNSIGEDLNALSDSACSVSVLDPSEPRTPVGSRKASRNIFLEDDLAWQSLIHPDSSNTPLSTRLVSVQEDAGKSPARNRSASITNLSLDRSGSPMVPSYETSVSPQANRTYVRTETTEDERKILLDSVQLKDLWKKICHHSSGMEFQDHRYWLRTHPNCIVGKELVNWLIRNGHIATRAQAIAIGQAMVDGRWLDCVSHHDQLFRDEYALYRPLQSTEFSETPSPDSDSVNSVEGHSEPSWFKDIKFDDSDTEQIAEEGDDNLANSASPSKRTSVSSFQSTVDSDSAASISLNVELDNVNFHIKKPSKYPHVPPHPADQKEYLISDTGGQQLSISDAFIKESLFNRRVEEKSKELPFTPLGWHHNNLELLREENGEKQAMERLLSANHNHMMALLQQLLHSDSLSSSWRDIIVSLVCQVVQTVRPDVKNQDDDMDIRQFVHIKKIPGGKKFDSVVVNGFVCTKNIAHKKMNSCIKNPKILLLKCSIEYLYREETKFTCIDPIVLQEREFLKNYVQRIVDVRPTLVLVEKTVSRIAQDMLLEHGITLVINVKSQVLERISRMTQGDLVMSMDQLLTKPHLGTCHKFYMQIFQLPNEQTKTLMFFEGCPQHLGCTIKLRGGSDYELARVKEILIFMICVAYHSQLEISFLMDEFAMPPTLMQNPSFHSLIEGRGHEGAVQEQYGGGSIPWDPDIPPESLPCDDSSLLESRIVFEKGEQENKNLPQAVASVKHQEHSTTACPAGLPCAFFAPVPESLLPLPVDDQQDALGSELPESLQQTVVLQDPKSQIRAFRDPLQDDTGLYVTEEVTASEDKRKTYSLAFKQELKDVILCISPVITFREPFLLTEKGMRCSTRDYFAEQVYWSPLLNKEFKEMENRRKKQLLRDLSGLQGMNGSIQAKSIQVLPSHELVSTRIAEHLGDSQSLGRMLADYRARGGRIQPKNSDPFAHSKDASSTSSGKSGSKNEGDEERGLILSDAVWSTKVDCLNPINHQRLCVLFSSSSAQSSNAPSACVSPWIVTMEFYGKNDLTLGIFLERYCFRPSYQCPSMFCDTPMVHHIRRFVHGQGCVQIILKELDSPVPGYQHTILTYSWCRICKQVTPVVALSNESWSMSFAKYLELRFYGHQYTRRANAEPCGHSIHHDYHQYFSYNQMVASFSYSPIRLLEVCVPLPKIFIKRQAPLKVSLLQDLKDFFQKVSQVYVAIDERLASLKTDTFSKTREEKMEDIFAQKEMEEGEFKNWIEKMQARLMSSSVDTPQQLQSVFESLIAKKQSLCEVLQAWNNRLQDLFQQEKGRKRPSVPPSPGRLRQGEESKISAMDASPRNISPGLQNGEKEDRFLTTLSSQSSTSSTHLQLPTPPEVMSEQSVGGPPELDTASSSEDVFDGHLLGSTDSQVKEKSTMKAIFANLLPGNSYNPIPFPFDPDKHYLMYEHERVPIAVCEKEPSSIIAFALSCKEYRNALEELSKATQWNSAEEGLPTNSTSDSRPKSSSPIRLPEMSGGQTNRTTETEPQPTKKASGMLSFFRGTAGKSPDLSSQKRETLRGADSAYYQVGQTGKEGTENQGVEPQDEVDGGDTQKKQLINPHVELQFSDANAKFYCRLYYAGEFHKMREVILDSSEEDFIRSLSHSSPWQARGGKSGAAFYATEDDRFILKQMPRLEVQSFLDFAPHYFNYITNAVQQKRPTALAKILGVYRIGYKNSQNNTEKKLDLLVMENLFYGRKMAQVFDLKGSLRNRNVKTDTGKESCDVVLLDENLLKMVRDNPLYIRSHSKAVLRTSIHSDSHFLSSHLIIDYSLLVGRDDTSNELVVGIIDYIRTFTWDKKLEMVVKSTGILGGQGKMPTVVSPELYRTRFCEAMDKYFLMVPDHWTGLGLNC

Row | SMILES | IC50
1 | c1cc(-c2cc3nc(-n4cnc(C5CCCNC5)c4)cc(N4CCOCC4)n3n2)ccn1 (stereo not shown) [Compound 16, 4-(5-(4-(piperidin-3-yl)-1H-imidazol-1-yl)-2-(pyridin-4-yl)pyrazolo[1,5-a]pyrimidin-7-yl)morpholine] | 1000 to 10000 nM
2 | c1ccc(Cc2ncccc2-c2cc(N3CCOCC3)n3nc(-c4ccncc4)cc3n2)cc1 [Compound 39, 4-(5-(2-benzylpyridin-3-yl)-2-(pyridin-4-yl)pyrazolo[1,5-a]pyrimidin-7-yl)morpholine] | 1000 to 10000 nM
3 | c1ccc(-c2cc(N3CCOCC3)n3nc(-c4ccncc4)cc3n2)nc1 [Compound 132] | 100 to 1000 nM
4 | CN1CCN(c2cc(N3CCOCC3)n3nc(-c4ccncc4)cc3n2)C(Cc2ccccc2)C1=O (stereo not shown) [Compound 28, 3-benzyl-1-methyl-4-(7-morpholino-2-(pyridin-4-yl)pyrazolo[1,5-a]pyrimidin-5-yl)piperazin-2-one] | 1000 to 10000 nM
5 | O=C1CC(c2ccccc2)CN1c1cc(N2CCOCC2)n2nc(-c3ccncc3)cc2n1 (stereo not shown) [Compound 25, 1-(7-morpholino-2-(pyridin-4-yl)pyrazolo[1,5-a]pyrimidin-5-yl)-4-phenylpyrrolidin-2-one] | 1000 to 10000 nM
6 | c1ccc(Cc2nccc(-c3cc(N4CCOCC4)n4nc(-c5ccncc5)cc4n3)n2)cc1 [Compound 140, 4-(5-(2-benzylpyrimidin-4-yl)-2-(pyridin-4-yl)pyrazolo[1,5-a]pyrimidin-7-yl)morpholine] | 100 to 1000 nM
7 | c1cn(-c2cc(N3CCOCC3)n3nc(C4CCCO4)cc3n2)nc1C1CCOCC1 (stereo not shown) [Compound 95, 4-(5-(3-(tetrahydro-2H-pyran-4-yl)-1H-pyrazol-1-yl)-2-(tetrahydrofuran-2-yl)pyrazolo[1,5-a]pyrimidin-7-yl)morpholine] | > 10000 nM
8 | c1cc(-c2cc3nc(-n4ccc(C5CCCNC5)n4)cc(N4CCOCC4)n3n2)ccn1 (stereo not shown) [Compound 67, 4-(5-(3-(piperidin-3-yl)-1H-pyrazol-1-yl)-2-(pyridin-4-yl)pyrazolo[1,5-a]pyrimidin-7-yl)morpholine] | 100 to 1000 nM
9 | c1ccc(-c2ccn(-c3cc(N4CCOCC4)n4nc(C5CCOCC5)cc4n3)n2)cc1 [Compound 98, 4-(5-(3-phenyl-1H-pyrazol-1-yl)-2-(tetrahydro-2H-pyran-4-yl)pyrazolo[1,5-a]pyrimidin-7-yl)morpholine] | 100 to 1000 nM
10 | c1ccc(C2CCN(c3cc(N4CCOCC4)n4nc(-c5ccncc5)cc4n3)C2)cc1 (stereo not shown) [Compound 33, 4-(5-(3-phenylpyrrolidin-1-yl)-2-(pyridin-4-yl)pyrazolo[1,5-a]pyrimidin-7-yl)morpholine] | 1000 to 10000 nM
11 | CN1C(=O)CN(c2cc(N3CCOCC3)n3nc(-c4ccncc4)cc3n2)CC1c1ccccc1 (stereo not shown) [Compound 37, 1-methyl-4-(7-morpholino-2-(pyridin-4-yl)pyrazolo[1,5-a]pyrimidin-5-yl)-6-phenylpiperazin-2-one] | 1000 to 10000 nM
12 | O=C1CCC(c2ccccc2)CN1c1cc(N2CCOCC2)n2nc(-c3ccncc3)cc2n1 (stereo not shown) [Compound 26, 1-(7-morpholino-2-(pyridin-4-yl)pyrazolo[1,5-a]pyrimidin-5-yl)-5-phenylpiperidin-2-one] | 1000 to 10000 nM
13 | Oc1cc(-c2cc(N3CCOCC3)n3nc(-c4ccncc4)cc3n2)nn1-c1cccc(F)c1 [Compound 59, 1-(3-fluorophenyl)-3-(7-morpholino-2-(pyridin-4-yl)pyrazolo[1,5-a]pyrimidin-5-yl)-1H-pyrazol-5-ol] | 10 to 100 nM
14 | Oc1cc(C2CCCCC2)nn1-c1cc(N2CCOCC2)n2nc(-c3ccncc3)cc2n1 [Compound 49, 3-cyclohexyl-1-(7-morpholino-2-(pyridin-4-yl)pyrazolo[1,5-a]pyrimidin-5-yl)-1H-pyrazol-5-ol] | 100 to 1000 nM
15 | CN1CCC(c2cc(O)n(-c3cc(N4CCOCC4)n4nc(-c5ccncc5)cc4n3)n2)CC1 [Compound 56, 3-(1-methylpiperidin-4-yl)-1-(7-morpholino-2-(pyridin-4-yl)pyrazolo[1,5-a]pyrimidin-5-yl)-1H-pyrazol-5-ol] | 100 to 1000 nM
16 | O=c1c(-c2ccccc2)c(-c2ccccc2)cnn1-c1cc(N2CCOCC2)n2nc(-c3ccncc3)cc2n1 [Compound 6, 2-(7-morpholino-2-(pyridin-4-yl)pyrazolo[1,5-a]pyrimidin-5-yl)-4,5-diphenylpyridazin-3(2H)-one] | 1000 to 10000 nM
17 | CC(C)c1cc(O)n(-c2cc(N3CCOCC3)n3nc(-c4ccncc4)cc3n2)n1 [Compound 54, 3-isopropyl-1-(7-morpholino-2-(pyridin-4-yl)pyrazolo[1,5-a]pyrimidin-5-yl)-1H-pyrazol-5-ol] | 100 to 1000 nM

Row | SMILES | IC50
18 | Fc1cccc(Oc2ncccc2-c2cc(N3CCOCC3)n3nc(-c4ccncc4)cc3n2)c1 [Compound 137, 4-(5-(2-(3-fluorophenoxy)pyridin-3-yl)-2-(pyridin-4-yl)pyrazolo[1,5-a]pyrimidin-7-yl)morpholine] | 100 to 1000 nM
19 | c1ccc(CN2CCCC2c2cc(N3CCOCC3)n3nc(-c4ccncc4)cc3n2)cc1 (stereo not shown) [Compound 124, 4-(5-(1-benzylpyrrolidin-2-yl)-2-(pyridin-4-yl)pyrazolo[1,5-a]pyrimidin-7-yl)morpholine] | 1000 to 10000 nM
20 | OCCc1ccn(-c2cc(N3CCOCC3)n3nc(-c4ccncc4)cc3n2)n1 [Compound 80, 2-(1-(7-morpholino-2-(pyridin-4-yl)pyrazolo[1,5-a]pyrimidin-5-yl)-1H-pyrazol-3-yl)ethan-1-ol] | 100 to 1000 nM
21 | CN1CCCC(c2cn(-c3cc(N4CCOCC4)n4nc(-c5ccncc5)cc4n3)cn2)C1 (stereo not shown) [Compound 18, 4-(5-(4-(1-methylpiperidin-3-yl)-1H-imidazol-1-yl)-2-(pyridin-4-yl)pyrazolo[1,5-a]pyrimidin-7-yl)morpholine] | 1000 to 10000 nM
22 | N#Cc1cc(N2CCOCC2)n2nc(-c3ccncc3)cc2n1 [Compound 103, 7-morpholino-2-(pyridin-4-yl)pyrazolo[1,5-a]pyrimidine-5-carbonitrile] | > 10000 nM
23 | Fc1cc(N2CCOCC2)n2nc(-c3ccncc3)cc2n1 [Compound 29, 4-(5-fluoro-2-(pyridin-4-yl)pyrazolo[1,5-a]pyrimidin-7-yl)morpholine] | 100 to 1000 nM
24 | CN1CCN(c2cc(N3CCOCC3)n3nc(-c4ccncc4)cc3n2)C(Cc2ccccc2)C1 (stereo not shown) [Compound 118, 4-(5-(2-benzyl-4-methylpiperazin-1-yl)-2-(pyridin-4-yl)pyrazolo[1,5-a]pyrimidin-7-yl)morpholine] | 1000 to 10000 nM
25 | COc1cccc(-c2ccn(-c3cc(N4CCOCC4)n4nc(C5CCCO5)cc4n3)n2)c1 (stereo not shown) [Compound 93, 4-(5-(3-(3-methoxyphenyl)-1H-pyrazol-1-yl)-2-(tetrahydrofuran-2-yl)pyrazolo[1,5-a]pyrimidin-7-yl)morpholine] | 10 to 100 nM
26 | Oc1cc(-c2cc(N3CCOCC3)n3nc(-c4ccncc4)cc3n2)nn1-c1cccnc1 [Compound 58, 3-(7-morpholino-2-(pyridin-4-yl)pyrazolo[1,5-a]pyrimidin-5-yl)-1-(pyridin-3-yl)-1H-pyrazol-5-ol] | 10 to 100 nM
27 | CN1CC(c2cc(N3CCOCC3)n3nc(-c4ccncc4)cc3n2)CC1c1ccccc1 (stereo not shown) [Compound 19, 4-(5-(1-methyl-5-phenylpyrrolidin-3-yl)-2-(pyridin-4-yl)pyrazolo[1,5-a]pyrimidin-7-yl)morpholine] | 1000 to 10000 nM
28 | O=C(CCCc1cc(N2CCOCC2)n2nc(-c3ccncc3)cc2n1)c1ccccc1 [Compound 113, 4-(7-morpholino-2-(pyridin-4-yl)pyrazolo[1,5-a]pyrimidin-5-yl)-1-phenylbutan-1-one] | 100 to 1000 nM
29 | CN1CC(=O)N(c2cc(N3CCOCC3)n3nc(-c4ccncc4)cc3n2)CC1c1ccccc1 (stereo not shown) [Compound 136, 4-methyl-1-(7-morpholino-2-(pyridin-4-yl)pyrazolo[1,5-a]pyrimidin-5-yl)-5-phenylpiperazin-2-one] | 1000 to 10000 nM
30 | Fc1cncc(-c2ccn(-c3cc(N4CCOCC4)n4nc(-c5ccncc5)cc4n3)n2)c1 [Compound 60, 4-(5-(3-(5-fluoropyridin-3-yl)-1H-pyrazol-1-yl)-2-(pyridin-4-yl)pyrazolo[1,5-a]pyrimidin-7-yl)morpholine] | 100 to 1000 nM
31 | c1cc(-c2cc3nc(-n4cc5c(n4)COCC5)cc(N4CCOCC4)n3n2)ccn1 [Compound 87, 2-(7-morpholino-2-(pyridin-4-yl)pyrazolo[1,5-a]pyrimidin-5-yl)-2,4,5,7-tetrahydropyrano[3,4-c]pyrazole] | 1000 to 10000 nM
32 | CN1CCCC(c2ccn(-c3cc(N4CCOCC4)n4nc(-c5ccncc5)cc4n3)n2)C1 (stereo not shown) [Compound 68, 4-(5-(3-(1-methylpiperidin-3-yl)-1H-pyrazol-1-yl)-2-(pyridin-4-yl)pyrazolo[1,5-a]pyrimidin-7-yl)morpholine] | 100 to 1000 nM
33 | c1ccc(-c2ccn(-c3cc(N4CCOCC4)n4nc(-c5ccncc5)cc4n3)n2)cc1 [Compound 148] | 10 to 100 nM
34 | c1ccc(-c2nsc(-c3cc(N4CCOCC4)n4nc(-c5ccncc5)cc4n3)n2)cc1 [Compound 127, 4-(5-(3-phenyl-1,2,4-thiadiazol-5-yl)-2-(pyridin-4-yl)pyrazolo[1,5-a]pyrimidin-7-yl)morpholine] | 10 to 100 nM
